# Results taken from PubChem BioAssay (NCI).
#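 Five concentrations, 48 hours, 96-well plates. TGI: concentration producing complete growth inhibition.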
# What was measured:
# Test in all cases: NCI tumour cell line growth inhibition, 48 h
# [1] = tested on: SF-295 CNS
# [2] = tested on: OVCAR-3 ovarian
# [3] = tested on: EKVX NSCLC
# [4] = tested on: A549 NSCLC
# [5] = tested on: NCI-H226 lung
# [6] = tested on: DU-145 prostate
# [7] = tested on: COLO 205 colon
# [8] = tested on: U251 CNS
# [9] = tested on: SNB-19 CNS
# [10] = tested on: ACHN renal
# [11] = tested on: SK-MEL-5 melanoma
# [12] = tested on: SW-620 colon
# [13] = tested on: SNB-75 CNS
# [14] = tested on: MDA-MB-435
# [15] = tested on: NCI-H23 lung
# [16] = tested on: HOP-62 NSCLC
# [17] = tested on: NCI/ADR-RES ovarian
# [18] = tested on: HS 578T breast
# [19] = tested on: SF-539 CNS
# [20] = tested on: SR leukemia
# [21] = tested on: PC-3 prostate
# [22] = tested on: TK-10 renal
# [23] = tested on: NCI-H460 lung
# [24] = tested on: KM12 colon
# [25] = tested on: K-562 leukemia
# [26] = tested on: SF-268 CNS
# [27] = tested on: MCF7 breast
# [28] = tested on: CCRF-CEM leukemia
# [29] = tested on: SN12C renal
# [30] = tested on: T-47D breast
# [31] = tested on: NCI-H522 lung
# [32] = tested on: SK-MEL-28 melanoma
# [33] = tested on: HCT-15 colon
# [34] = tested on: MDA-N
# [35] = tested on: 786-0 renal
# [36] = tested on: M14 melanoma
# [37] = tested on: BT-549 breast
# [38] = tested on: HT29 colon
# [39] = tested on: UACC-257 melanoma
# [40] = tested on: MALME-3M melanoma
# [41] = tested on: MOLT-4 leukemia
# [42] = tested on: MDA-MB-231 breast
# [43] = tested on: HCT-116 colon
# [44] = tested on: IGROV1 ovarian
# [45] = tested on: CAKI-1 renal
# [46] = tested on: RXF 393 renal
# [47] = tested on: RPMI-8226 leukemia
# [48] = tested on: HCC-2998 colon
# [49] = tested on: UO-31 renal
# [50] = tested on: OVCAR-8 ovarian
# [51] = tested on: LOX IMVI melanoma
# [52] = tested on: HL-60(TB) leukemia
# [53] = tested on: OVCAR-5 ovarian
# [54] = tested on: SK-MEL-2 melanoma
# [55] = tested on: OVCAR-4 ovarian
# [56] = tested on: SK-OV-3 ovarian
compound,measurement,setting,value
CC(CC(=O)N1C2CC3CCC2(CS1(=O)=O)C3(C)C)[Si](C)(C)C (stereo unspecified),TGI,[1],> 100 µM
same,TGI,[2],> 100 µM
same,TGI,[3],> 100 µM
same,TGI,[4],> 100 µM
same,TGI,[5],> 100 µM
same,TGI,[6],> 100 µM
same,TGI,[7],> 100 µM
same,TGI,[8],> 100 µM
same,TGI,[9],> 100 µM
same,TGI,[10],> 100 µM
same,TGI,[11],> 100 µM
same,TGI,[12],> 100 µM
same,TGI,[13],> 100 µM
same,TGI,[14],> 100 µM
same,TGI,[15],> 100 µM
same,TGI,[16],> 100 µM
same,TGI,[17],> 100 µM
same,TGI,[18],> 100 µM
same,TGI,[19],> 100 µM
same,TGI,[20],> 100 µM
same,TGI,[21],> 100 µM
same,TGI,[22],> 100 µM
same,TGI,[23],> 100 µM
same,TGI,[24],> 100 µM
same,TGI,[25],> 100 µM
same,TGI,[26],> 100 µM
same,TGI,[27],> 100 µM
same,TGI,[28],> 100 µM
same,TGI,[29],> 100 µM
same,TGI,[30],> 100 µM
same,TGI,[31],> 100 µM
same,TGI,[32],> 100 µM
same,TGI,[33],> 100 µM
same,TGI,[34],> 100 µM
same,TGI,[35],> 100 µM
same,TGI,[36],> 100 µM
same,TGI,[37],> 100 µM
same,TGI,[38],> 100 µM
same,TGI,[39],> 100 µM
same,TGI,[40],> 100 µM
same,TGI,[41],> 100 µM
same,TGI,[42],> 100 µM
same,TGI,[43],> 100 µM
same,TGI,[44],> 100 µM
same,TGI,[45],> 100 µM
same,TGI,[46],> 100 µM
same,TGI,[47],> 100 µM
same,TGI,[48],> 100 µM
same,TGI,[49],> 100 µM
same,TGI,[50],> 100 µM
same,TGI,[51],> 100 µM
same,TGI,[52],> 100 µM
CC(=O)N1C(c2[nH]c3ccccc3c2Cc2ccccc2)CCN1c1ccccc1 (stereo unspecified),TGI,[53],> 10 µM
same,TGI,[1],> 10 µM
same,TGI,[2],> 10 µM
same,TGI,[3],> 10 µM
same,TGI,[4],> 10 µM
same,TGI,[5],> 10 µM
same,TGI,[6],> 10 µM
same,TGI,[7],> 10 µM
same,TGI,[9],> 10 µM
same,TGI,[10],> 10 µM
same,TGI,[11],> 10 µM
same,TGI,[12],> 10 µM
same,TGI,[13],> 10 µM
same,TGI,[14],> 10 µM
same,TGI,[54],> 10 µM
same,TGI,[15],> 10 µM
same,TGI,[16],> 10 µM
same,TGI,[17],> 10 µM
same,TGI,[18],> 10 µM
same,TGI,[19],> 10 µM
same,TGI,[55],> 10 µM
same,TGI,[20],> 10 µM
same,TGI,[21],> 10 µM
same,TGI,[22],> 10 µM
same,TGI,[23],> 10 µM
same,TGI,[25],> 10 µM
same,TGI,[26],> 10 µM
same,TGI,[27],> 10 µM
same,TGI,[56],> 10 µM
same,TGI,[28],> 10 µM
same,TGI,[29],> 10 µM
same,TGI,[30],> 10 µM
same,TGI,[31],> 10 µM
same,TGI,[32],> 10 µM
same,TGI,[33],> 10 µM
same,TGI,[34],> 10 µM
same,TGI,[35],> 10 µM
same,TGI,[36],> 10 µM
same,TGI,[37],> 10 µM
same,TGI,[38],> 10 µM
same,TGI,[39],> 10 µM
same,TGI,[40],> 10 µM
same,TGI,[41],> 10 µM
same,TGI,[42],> 10 µM
same,TGI,[43],> 10 µM
same,TGI,[44],> 10 µM
same,TGI,[45],> 10 µM
same,TGI,[46],> 10 µM
same,TGI,[47],> 10 µM
same,TGI,[48],> 10 µM
same,TGI,[49],> 10 µM
same,TGI,[50],> 10 µM
same,TGI,[51],> 10 µM
same,TGI,[52],> 10 µM
